Patent US20240226115A1, “AXL INHIBITOR COMPOUNDS” (ARCUS BIOSCIENCES, INC., priority 2021, published 2024)

Tests used:
Axl [1] = target: T1, Axl (Homo sapiens, UniProt P30530); test: Axl NanoBRET intracellular kinase assay (Cell Binding); design: host or cells: HEK-293; conditions: HEK-293 cells transfected with Axl-NanoLuc fusion vector; displacement of K-5 NanoBRET tracer
T1 sequence (P30530 26-894): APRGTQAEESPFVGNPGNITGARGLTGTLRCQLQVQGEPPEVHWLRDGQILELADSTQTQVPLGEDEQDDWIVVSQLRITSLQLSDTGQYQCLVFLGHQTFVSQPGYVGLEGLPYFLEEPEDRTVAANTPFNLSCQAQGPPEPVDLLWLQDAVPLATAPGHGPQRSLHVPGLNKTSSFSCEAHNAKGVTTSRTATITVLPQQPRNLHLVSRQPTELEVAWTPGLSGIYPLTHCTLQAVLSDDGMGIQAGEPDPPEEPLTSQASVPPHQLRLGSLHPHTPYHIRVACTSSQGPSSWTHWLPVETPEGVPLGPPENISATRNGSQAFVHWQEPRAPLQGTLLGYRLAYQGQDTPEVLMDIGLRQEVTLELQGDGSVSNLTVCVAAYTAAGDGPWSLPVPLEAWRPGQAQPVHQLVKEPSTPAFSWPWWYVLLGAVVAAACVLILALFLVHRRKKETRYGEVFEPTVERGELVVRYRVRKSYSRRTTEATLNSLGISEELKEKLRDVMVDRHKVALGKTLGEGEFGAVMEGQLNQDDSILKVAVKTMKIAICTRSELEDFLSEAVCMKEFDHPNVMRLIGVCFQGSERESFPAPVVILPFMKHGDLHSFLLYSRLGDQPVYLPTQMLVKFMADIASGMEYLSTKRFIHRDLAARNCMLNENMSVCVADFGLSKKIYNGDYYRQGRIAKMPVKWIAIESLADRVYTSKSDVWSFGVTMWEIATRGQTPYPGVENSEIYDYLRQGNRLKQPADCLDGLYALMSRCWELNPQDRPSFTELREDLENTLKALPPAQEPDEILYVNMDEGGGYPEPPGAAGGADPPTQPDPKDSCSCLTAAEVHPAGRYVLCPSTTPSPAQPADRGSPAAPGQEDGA
In short: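 In intact HEK-293 cells transiently expressing NanoLuc-tagged Axl, compounds compete with the K-5 tracer (0.35 μM, 2 h, 37 °C) after a 1 h preincubation. Readout is the 610/450 nm emission ratio.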

Axl [2] = target: T1, Axl; test: HTRF KinEASE-TK biochemical potency, AXL; design: purchased Invitrogen; conditions: 5 nM AXL, 700 μM ATP
In short: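 Enzyme preincubated with compound 1 h at RT; final 5 nM AXL or 1 nM TYRO3/MER, 800 nM TK substrate-biotin, 700 μM ATP, HEPES pH 7.4, MgCl2, 1% DMSO, 2 h at RT. HTRF 665/620 ratio read after streptavidin-XL665/cryptate antibody detection; percent activity relative to DMSO and pre-stopped controls.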

CC1(C)NS(=O)(=O)c2cc(-c3n[nH]c4ncc(-c5ccc6c(c5)CCC(N5CCC[C@@H]5CO)CC6)cc34)ccc21 (stereo partly drawn) [Example 34, 6-(5-{7-[(2R)-2-(Hydroxymethyl)pyrrolidin-1-yl]-6,7,8,9-tetrahydro-5H-benzo[7]annulen-2-yl}-1H-pyrazolo[3,4-b]pyridin-3-yl)-3,3-dimethyl-2,3-dihydro-1λ^6,2-benzothiazole-1,1-dione]
IC50 (Axl [1]): < 100 nM | IC50 (Axl [2]): < 100 nM

CC1(C)COc2cc(-c3n[nH]c4ncc(-c5ccc6c(c5)CCC(N5CCCC5)CC6)cc34)ccc2C(=O)N1 (stereo not shown) [Example 35, 3,3-Dimethyl-8-{5-[7-(pyrrolidin-1-yl)-6,7,8,9-tetrahydro-5H-benzo[7]annulen-2-yl]-1H-pyrazolo[3,4-b]pyridin-3-yl}-2,3,4,5-tetrahydro-1,4-benzoxazepin-5-one]
IC50 (Axl [1]): < 100 nM | IC50 (Axl [2]): < 100 nM

C[C@@H]1CCCN1C1CCc2ccc(-c3cnc4[nH]nc(-c5ccc6c(c5)OCC5(CC5)NC6=O)c4c3)cc2CC1 (stereo partly drawn) [Example 36, 8-(5-{7-[(2R)-2-Methylpyrrolidin-1-yl]-6,7,8,9-tetrahydro-5H-benzo[7]annulen-2-yl}-1H-pyrazolo[3,4-b]pyridin-3-yl)-4,5-dihydro-2H-spiro[1,4-benzoxazepine-3,1′-cyclopropan]-5-one]
IC50 (Axl [1]): < 100 nM | IC50 (Axl [2]): < 100 nM

C[C@@H]1CCCN1C1CCc2ccc(-c3cnc4[nH]nc(-c5ccc6c(c5)OCC5(CCC5)NC6=O)c4c3)cc2CC1 (stereo partly drawn) [Example 37, 8-(5-{7-[(2R)-2-Methylpyrrolidin-1-yl]-6,7,8,9-tetrahydro-5H-benzo[7]annulen-2-yl}-1H-pyrazolo[3,4-b]pyridin-3-yl)-4,5-dihydro-2H-spiro[1,4-benzoxazepine-3,1′-cyclobutan]-5-one]
IC50 (Axl [1]): < 100 nM | IC50 (Axl [2]): < 100 nM

C[C@@H]1CCCN1C1CCc2ccc(-c3cnc4[nH]nc(-c5ccc6c(c5)C(=O)NC6(C)C)c4c3)cc2CC1 (stereo partly drawn) [Example 38, 3,3-Dimethyl-6-(5-{7-[(2R)-2-methylpyrrolidin-1-yl]-6,7,8,9-tetrahydro-5H-benzo[7]annulen-2-yl}-1H-pyrazolo[3,4-b]pyridin-3-yl)-2,3-dihydro-1H-isoindol-1-one]
IC50 (Axl [1]): < 100 nM | IC50 (Axl [2]): < 100 nM

C[C@H]1CCCN1C1Cc2ccc(-c3cnc4[nH]nc(-c5ccc6c(c5)OCC(C)(C)NC6=O)c4c3)cc2C1 (stereo partly drawn) [Example 39, 3,3-Dimethyl-8-(5-{2-[(2S)-2-methylpyrrolidin-1-yl]-2,3-dihydro-1H-inden-5-yl}-1H-pyrazolo[3,4-b]pyridin-3-yl)-2,3,4,5-tetrahydro-1,4-benzoxazepin-5-one]
IC50 (Axl [1]): < 100 nM | IC50 (Axl [2]): < 100 nM

Cc1cc2c(cc1-c1n[nH]c3ncc(-c4ccc5c(c4)CCC(N4CCC[C@H]4C)CC5)cc13)OCCNC2=O (stereo partly drawn) [Example 40, 7-Methyl-8-(5-{7-[(2R)-2-methylpyrrolidin-1-yl]-6,7,8,9-tetrahydro-5H-benzo[7]annulen-2-yl}-1H-pyrazolo[3,4-b]pyridin-3-yl)-2,3,4,5-tetrahydro-1,4-benzoxazepin-5-one]
IC50 (Axl [1]): < 100 nM | IC50 (Axl [2]): < 100 nM

Cc1c(-c2n[nH]c3ncc(-c4ccc5c(c4)CCC(N4CCC[C@H]4C)CC5)cc23)ccc2c1OCCNC2=O (stereo partly drawn) [Example 41, 9-Methyl-8-(5-{7-[(2R)-2-methylpyrrolidin-1-yl]-6,7,8,9-tetrahydro-5H-benzo[7]annulen-2-yl}-1H-pyrazolo[3,4-b]pyridin-3-yl)-2,3,4,5-tetrahydro-1,4-benzoxazepin-5-one]
IC50 (Axl [1]): < 100 nM | IC50 (Axl [2]): < 100 nM

O=C1NCCOc2cc(-c3n[nH]c4ncc(-c5ccc6c(c5)CCC(NC5CCCC5)CC6)cc34)ccc21 (stereo not shown) [Example 42, 8-{5-[7-(Cyclopentylamino)-6,7,8,9-tetrahydro-5H-benzo[7]annulen-2-yl]-1H-pyrazolo[3,4-b]pyridin-3-yl}-2,3,4,5-tetrahydro-1,4-benzoxazepin-5-one]
IC50 (Axl [1]): < 100 nM | IC50 (Axl [2]): < 100 nM

C[C@H]1CCCN1C1CCc2ccc(-c3cnc4[nH]nc(-c5ccc6c(c5)OCCNC6=O)c4c3)cc2CC1 (stereo partly drawn) [Example 43, 8-(5-{7-[(2S)-2-Methylpyrrolidin-1-yl]-6,7,8,9-tetrahydro-5H-benzo[7]annulen-2-yl}-1H-pyrazolo[3,4-b]pyridin-3-yl)-2,3,4,5-tetrahydro-1,4-benzoxazepin-5-one]
IC50 (Axl [1]): < 100 nM | IC50 (Axl [2]): < 100 nM

C[C@@H]1CCCN1C1CCc2ccc(-c3cnc4[nH]nc(-c5ccc6c(c5)OCCNC6=O)c4c3)cc2CC1 (stereo partly drawn) [Example 44, 8-(5-{7-[(2R)-2-Methylpyrrolidin-1-yl]-6,7,8,9-tetrahydro-5H-benzo[7]annulen-2-yl}-1H-pyrazolo[3,4-b]pyridin-3-yl)-2,3,4,5-tetrahydro-1,4-benzoxazepin-5-one]
IC50 (Axl [1]): < 100 nM | IC50 (Axl [2]): < 100 nM

O=C1NCCOc2cc(-c3n[nH]c4ncc(-c5ccc6c(c5)CCC(N[C@H]5CCOC5)CC6)cc34)ccc21 (stereo partly drawn) [Example 45, 8-[5-(7-{[(3S)—Oxolan-3-yl]amino}-6,7,8,9-tetrahydro-5H-benzo[7]annulen-2-yl)-1H-pyrazolo[3,4-b]pyridin-3-yl]-2,3,4,5-tetrahydro-1,4-benzoxazepin-5-one]
IC50 (Axl [1]): < 100 nM | IC50 (Axl [2]): < 100 nM

O=C1NCCOc2cc(-c3n[nH]c4ncc(-c5ccc6c(c5)CCC(N[C@@H]5CCOC5)CC6)cc34)ccc21 (stereo partly drawn) [Example 46, 8-[5-(7-{[(3R)—Oxolan-3-yl]amino}-6,7,8,9-tetrahydro-5H-benzo[7]annulen-2-yl)-1H-pyrazolo[3,4-b]pyridin-3-yl]-2,3,4,5-tetrahydro-1,4-benzoxazepin-5-one]
IC50 (Axl [1]): < 100 nM | IC50 (Axl [2]): < 100 nM

O=C1NCCOc2cc(-c3n[nH]c4ncc(-c5ccc6c(c5)CCC(N5CCOCC5)CC6)cc34)ccc21 (stereo not shown) [Example 47, 8-{5-[7-(Morpholin-4-yl)-6,7,8,9-tetrahydro-5H-benzo[7]annulen-2-yl]-1H-pyrazolo[3,4-b]pyridin-3-yl}-2,3,4,5-tetrahydro-1,4-benzoxazepin-5-one]
IC50 (Axl [1]): < 100 nM | IC50 (Axl [2]): < 100 nM

O=C1NCCOc2cc(-c3n[nH]c4ncc(-c5ccc6c(c5)CCC(N5CCNCC5)CC6)cc34)ccc21 (stereo not shown) [Example 48, 8-{5-[7-(Piperazin-1-yl)-6,7,8,9-tetrahydro-5H-benzo[7]annulen-2-yl]-1H-pyrazolo[3,4-b]pyridin-3-yl}-2,3,4,5-tetrahydro-1,4-benzoxazepin-5-one]
IC50 (Axl [1]): 100 to 1000 nM | IC50 (Axl [2]): < 100 nM

O=C1NCCOc2cc(-c3n[nH]c4ncc(-c5ccc6c(c5)CCC(N5CCC[C@@H]5CO)CC6)cc34)ccc21 (stereo partly drawn) [Example 49, 8-(5-{7-[(2R)-2-(Hydroxymethyl)pyrrolidin-1-yl]-6,7,8,9-tetrahydro-5H-benzo[7]annulen-2-yl}-1H-pyrazolo[3,4-b]pyridin-3-yl)-2,3,4,5-tetrahydro-1,4-benzoxazepin-5-one]
IC50 (Axl [1]): < 100 nM | IC50 (Axl [2]): < 100 nM

O=C1NCCOc2cc(-c3n[nH]c4ncc(-c5ccc6c(c5)CCC(N5CCC[C@H]5CO)CC6)cc34)ccc21 (stereo partly drawn) [Example 50, 8-(5-{7-[(2S)-2-(Hydroxymethyl)pyrrolidin-1-yl]-6,7,8,9-tetrahydro-5H-benzo[7]annulen-2-yl}-1H-pyrazolo[3,4-b]pyridin-3-yl)-2,3,4,5-tetrahydro-1,4-benzoxazepin-5-one]
IC50 (Axl [1]): < 100 nM | IC50 (Axl [2]): < 100 nM
